Conditions: 101.33 kPa, Liquid, Oscillating Cup

O=[N+]([O-])[O-].[Na+] [sodium nitrate]
Conditions	viscosity [mPa·s]
590.3 K	2.854
599.3 K	2.74
600 K	2.658
600.3 K	2.638
613.2 K	2.437
640.9 K	2.155
653.6 K	2.05
673.2 K	1.811
676.8 K	1.768
691.9 K	1.719
709.7 K	1.627
714.6 K	1.537
732.4 K	1.564
752.1 K	1.43

Source: the NIST ThermoML archive (doi:10.1007/s10765-006-0119-1)
